We go through two compounds from patent US20240139211A1, “METHODS AND COMPOSITIONS FOR TREATING AMYOTROPHIC LATERAL SCLEROSIS” (Amylyx Pharmaceuticals, Inc., priority 2022, published 2024).

The test system of one data set is CYP1A2 mRNA. As to the kind of experiment: in vitro. The settings on record: human, hepatocyte cultures.
The next data set concerns CYP2B6 mRNA. Kind of data set: in vitro. The settings on record: human, hepatocyte cultures.
In the next data set the target is T1, OAT3 (Homo sapiens, UniProt Q8TCC7).
T1 sequence (Q8TCC7 1-542): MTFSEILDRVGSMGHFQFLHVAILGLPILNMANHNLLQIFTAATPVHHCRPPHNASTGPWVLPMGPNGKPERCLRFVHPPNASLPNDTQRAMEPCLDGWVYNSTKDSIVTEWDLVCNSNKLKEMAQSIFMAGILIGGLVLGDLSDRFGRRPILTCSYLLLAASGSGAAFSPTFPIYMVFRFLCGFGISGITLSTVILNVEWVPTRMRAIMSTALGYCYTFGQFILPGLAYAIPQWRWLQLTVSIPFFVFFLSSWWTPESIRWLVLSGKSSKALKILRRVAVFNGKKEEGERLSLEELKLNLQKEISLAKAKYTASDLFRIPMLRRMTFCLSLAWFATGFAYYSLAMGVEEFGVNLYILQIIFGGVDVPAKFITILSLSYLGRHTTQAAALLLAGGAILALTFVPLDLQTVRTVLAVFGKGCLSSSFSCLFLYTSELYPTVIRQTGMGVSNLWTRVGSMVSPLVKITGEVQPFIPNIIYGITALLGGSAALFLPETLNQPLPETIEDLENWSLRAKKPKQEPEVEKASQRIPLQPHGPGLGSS
Kind of data set: in vitro.

A short description of data set [1]: Solubility assessment in HBSSg_7.4 and HBSSg_8.5. The settings on record: replicates 1-3.
A further data set addresses hrCYP3A4 (Homo sapiens, UniProt P08684). Kind of data set: CYP reaction phenotyping with hrCYP3A4 (% remaining). The format is in vitro ADME. The settings on record: human, 1 h, 5 µM, pH 7.4.
In another data set the target is hrCYP2D6 (Homo sapiens, UniProt P10635). Kind of data set: CYP reaction phenotyping with hrCYP2D6 (% remaining). The format is in vitro ADME. The settings on record: human, 1 h, 5 µM, pH 7.4.
Chain of hrCYP2D6 (P10635 whole entry): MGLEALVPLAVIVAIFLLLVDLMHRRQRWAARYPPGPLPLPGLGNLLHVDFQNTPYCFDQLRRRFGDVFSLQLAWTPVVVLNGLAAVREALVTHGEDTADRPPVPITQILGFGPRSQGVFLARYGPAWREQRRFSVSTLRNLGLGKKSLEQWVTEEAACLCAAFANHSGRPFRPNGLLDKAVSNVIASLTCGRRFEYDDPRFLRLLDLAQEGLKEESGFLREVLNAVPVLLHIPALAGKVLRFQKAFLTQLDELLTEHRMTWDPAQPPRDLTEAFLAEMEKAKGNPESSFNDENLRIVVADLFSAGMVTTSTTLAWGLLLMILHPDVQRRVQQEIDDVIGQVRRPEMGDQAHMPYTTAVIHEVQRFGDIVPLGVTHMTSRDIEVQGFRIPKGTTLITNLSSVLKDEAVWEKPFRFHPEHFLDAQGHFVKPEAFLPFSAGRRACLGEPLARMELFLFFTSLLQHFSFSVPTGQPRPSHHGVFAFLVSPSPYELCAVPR
Data set [2] can be described thus: Rat drug-drug interaction study TDF + AMX0035: plasma pharmacokinetics. The settings on record: Day 5, AMX0035 + TDF 840/25 mg/kg oral, male Sprague Dawley rats; individual animals; BLQ = <50 ng/mL.
A short description of data set [3]: Rat drug-drug interaction study TDF + AMX0035: urine recovery. The format is in vivo. The settings on record: male, Sprague-Dawley, rat, in vivo. The method, then:
Total urine recovery data for Tenofovir, TDF, and PB was calculated for the 24 hour collection period on Days 1 and 5. […] The reported urine recovery data included amount recovered (ng) and percent recovered (%) for […]. Individual and mean Tenofovir, TDF, and PB urine recovery data were presented with SD, reported to three significant figures, and CV %, reported to one decimal place.

In the next data set the target is T2, hrCYP1A2 (Homo sapiens, UniProt P05177).
T2 sequence (P05177 1-516): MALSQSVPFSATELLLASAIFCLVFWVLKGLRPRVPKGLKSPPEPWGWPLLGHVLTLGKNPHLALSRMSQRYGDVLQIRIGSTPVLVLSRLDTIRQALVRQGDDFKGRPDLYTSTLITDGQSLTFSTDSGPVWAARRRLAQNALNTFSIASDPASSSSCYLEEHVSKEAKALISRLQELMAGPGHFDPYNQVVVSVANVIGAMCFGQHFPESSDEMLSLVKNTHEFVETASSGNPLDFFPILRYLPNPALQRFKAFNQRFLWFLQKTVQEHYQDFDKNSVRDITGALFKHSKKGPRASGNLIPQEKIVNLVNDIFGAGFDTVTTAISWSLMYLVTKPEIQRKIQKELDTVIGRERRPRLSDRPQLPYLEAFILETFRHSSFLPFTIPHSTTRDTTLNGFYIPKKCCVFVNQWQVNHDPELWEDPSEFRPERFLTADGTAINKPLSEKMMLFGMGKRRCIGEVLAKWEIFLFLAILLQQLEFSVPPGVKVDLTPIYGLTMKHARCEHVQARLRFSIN
As to the kind of experiment: CYP reaction phenotyping with hrCYP1A2 (% remaining). In kind it is in vitro ADME. The settings on record: human, 1 h, 5 µM, pH 7.4.

[4] abbreviates: HBSSg_7.4, target 8005 μM TUDCA, 64447 μM PB.
Where [5] appears, read: HBSSg_8.5, target 810 μM TUDCA, 73927 μM PB.

SMILES strings stand for the structures. Values joined by “and” are separate entries in the source; they are usually repeats but may differ in a detail not shown here. Identical values can stand only once.

Chain of hrCYP3A4 (P08684 whole entry): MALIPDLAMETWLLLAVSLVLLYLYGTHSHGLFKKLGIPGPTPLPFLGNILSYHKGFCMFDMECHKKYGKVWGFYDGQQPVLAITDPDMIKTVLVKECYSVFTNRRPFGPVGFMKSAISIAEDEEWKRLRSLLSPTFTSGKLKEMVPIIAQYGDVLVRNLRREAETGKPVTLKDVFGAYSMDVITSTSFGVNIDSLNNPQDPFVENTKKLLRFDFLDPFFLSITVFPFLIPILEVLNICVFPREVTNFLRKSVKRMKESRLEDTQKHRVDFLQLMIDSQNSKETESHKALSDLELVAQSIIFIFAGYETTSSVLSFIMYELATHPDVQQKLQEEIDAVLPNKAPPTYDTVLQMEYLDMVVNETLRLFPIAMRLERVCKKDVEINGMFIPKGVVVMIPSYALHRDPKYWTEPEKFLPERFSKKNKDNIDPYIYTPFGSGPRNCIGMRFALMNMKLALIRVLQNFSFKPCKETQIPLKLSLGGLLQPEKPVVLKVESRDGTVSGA

One may read the EC50 as the concentration needed to bring the measured effect to its halfway point. What is called fold induction is the ratio of treated to control signal. The low end stands for little rise in signal, the high end for a large rise in signal. For the compound `C[C@H](CCC(=O)NCC(=O)O)[C@H]1CC[C@H]2[C@@H]3[C@@H](O)C[C@@H]4C[C@H](O)CC[C@]4(C)[C@H]3CC[C@]12C` [Glycoursodeoxycholic acid, glycoursodeoxycholic acid], the EC50 at 72 h in the data set on CYP1A2 mRNA was found to be 1880 nM; with CYP2B6 mRNA, 1740 nM. Also, the fold induction at 72 h stood at 12.2 with CYP1A2 mRNA and 5.83 in the data set with CYP2B6 mRNA. For the same compound, the potency estimated from few doses at OAT3 is < 100 µM.

As for `O=C(O)CCCc1ccccc1` [PB, sodium phenylbutyrate], the “Measured Concentration” value in [1] (setting [4]) is 52000 µM and 59300 µM and 52800 µM; in data set [1] (setting [5]) it was 62200 µM and 53200 µM and 61100 µM. Further, the “Percent of the Nominal Concentration” value in data set [1] (setting [4]) is 80.7% and 92.0% and 81.9%; in [1] (setting [5]), 84.1% and 72.0% and 82.6%. Further, the “% remaining after 60 minutes” value at hrCYP3A4, at hrCYP2D6 and at hrCYP1A2 was “greater than 90%” each time. For the same compound, the “Plasma Concentration of analyte at 8.0 hr” value in data set [2] was determined as 102 ng/mL. The Urine concentrations result in data set [3] was “Urine concentrations for PB analysis in all animals on Day 1, for TUDCA analysis in all animals on Days 1 and 5, and for TDF analysis in two animals on Day 1 and one animal on Day 5 were BLQ (<20 mg/mL) so no recovery data was calculated”. In addition, the potency estimated from few doses at OAT3 is < 25 µM.
